The conditions of data set [1]: cited from earlier work.
Data set [2] in a line: Dissolution / reconstitution time at 50 mg/mL in castor oil, ethanol and benzyl alcohol solvent (benzyl benzoate-free). The format is physicochemical. The settings on record: solvent of castor oil and benzyl benzoate-free alcohol mixtures. As for the experimental part: The lyophilizate should be reconstituted within a reasonable period, typically of less than 2 minutes (5); if reconstitution time is excessive, that is, more than 3 minutes, the user may get impatient or frustrated (6). […] This comparison was performed by dissolving fulvestrant at a concentration of 50 mg/mL, using a solvent comprising castor oil and benzyl benzoate-free alcohol mixtures.
A 50 mL Schott, type I, glass vial is placed on an Ohaus Adventurer balance. Then, 3.12 g Merck ethanol, 4.17 g Sigma-Aldrich benzyl alcohol and 12.70 g Sigma-Aldrich castor oil are added.
With the aid of a 1000 uL Eppendorf Research micropipette, 5 mL of the previously prepared solvent was added into an 11 mL Nuova Ompi type I of glass vial. The vial is capped with a solution S-additive plug from WestPharma and crimped with an aluminum seal.
The process for reconstituting a vial of lyophilizate of example 1 with the solvent of said example, using a Needle-less Transfer System Transfer Device 20/20 w/150 mic Filter Sterile from Westpharma, FIG. 9, is as follows:
10. The complete content of the syringe is discharged into the lyophilizate vial. […]
Using a Sper Scientific timer, it was determined that less than 90 seconds were required for reconstituting the lyophilizate. […]
It was determined that more than 60 minutes were required to completely dissolve Fulvestrant in the solvent using a Sper Scientific timer.

Data set [3] is described as follows: Stability test of the fulvestrant solution in acetic acid during 6 hours at room temperature (HPLC titer and impurities). Particulars: fulvestrant in glacial acetic acid. Type of data set: physicochemical. The protocol: To a 10 mL beaker, fitted with a magnetic stirrer, 2.5 mL glacial acetic acid, Merck lot K 36685863, is added.
Fifty mg Fulvestrant from Scinopharm, lot#70850AA003 were weighed using an Ohaus model Adventurer balance.
Stirring of acetic acid is started and Fulvestrant is slowly added which is rapidly dissolved. After all Fulvestrant was added stirring is continued for 5 minutes.
Stirring is stopped and the solution is left at room temperature for 6 hours, then dissolution is analyzed in terms of titer and purity by HPLC, and compared to Scinopharm Fulvestrant as used for manufacturing the lyophilizate. HPLC determinations were carried out on an HPLC Waters with a Waters 1525 binary pump, Waters 717 autosampler, and a Waters 2996 diode array detector; the HPLC column used for determining titer and purity is an Agilent Eclipse XDB-C8 3.5 u 4.6×150 Rapid Res column; the chromatographic method corresponds to US Pharmacopeia (USP, 34 (2011)) monograph for Fulvestrant.

`C[C@]12CC[C@@H]3c4ccc(O)cc4C[C@@H](CCCCCCCCC[S+]([O-])CCCC(F)(F)C(F)(F)F)[C@H]3[C@@H]1CC[C@@H]2O` (some centres unmarked) [Fulvestrant]: the “solubility in castor oil with organic solvents (alcohol) and a non-aqueous ester-type solvent” value in data set [1] (carrier of US 6,774,122) was “at least 50 mg/mL”. Besides, the solubility in ethanol entry in data set [1] (ethanol, ref (3) US 6,774,122) was “highly soluble”. In addition, the “fulvestrant solubility in propylene glycol” value in data set [1] (propylene glycol, according to ref (7) US 2009/0227549) is 4000 µg/mL. Also, the solubility in tert-butanol entry in data set [1] (tert-butanol, ref (7)) is “highly soluble”. Besides, the solubility in water entry in data set [1] (water, ref (3)) was “practically insoluble”. Besides, the dissolution time entry in data set [2] is given as “more than 60 minutes”. In data set [3], the “titer of the solution” value is recorded as 99.2% and the “total impurities in the solution” value turned out to be 0.1%.

The record behind these values is patent publication US9029582B2, “Pharmaceutical composition” (Capital, Business Y Gestion de Finanzas S.L., priority 2011, dated 2015).
